Molecules are shown by their SMILES. Where only a bound is given, the exact number is not on record here.

Assay [1] has as its target T1, AR (Homo sapiens, UniProt P10275).
T1 construct: The VCaP cells were transfected with MMTV-LUC for 24 hours; endogenous in cells; host or cells: VCaP
T1 sequence (P10275 1-920): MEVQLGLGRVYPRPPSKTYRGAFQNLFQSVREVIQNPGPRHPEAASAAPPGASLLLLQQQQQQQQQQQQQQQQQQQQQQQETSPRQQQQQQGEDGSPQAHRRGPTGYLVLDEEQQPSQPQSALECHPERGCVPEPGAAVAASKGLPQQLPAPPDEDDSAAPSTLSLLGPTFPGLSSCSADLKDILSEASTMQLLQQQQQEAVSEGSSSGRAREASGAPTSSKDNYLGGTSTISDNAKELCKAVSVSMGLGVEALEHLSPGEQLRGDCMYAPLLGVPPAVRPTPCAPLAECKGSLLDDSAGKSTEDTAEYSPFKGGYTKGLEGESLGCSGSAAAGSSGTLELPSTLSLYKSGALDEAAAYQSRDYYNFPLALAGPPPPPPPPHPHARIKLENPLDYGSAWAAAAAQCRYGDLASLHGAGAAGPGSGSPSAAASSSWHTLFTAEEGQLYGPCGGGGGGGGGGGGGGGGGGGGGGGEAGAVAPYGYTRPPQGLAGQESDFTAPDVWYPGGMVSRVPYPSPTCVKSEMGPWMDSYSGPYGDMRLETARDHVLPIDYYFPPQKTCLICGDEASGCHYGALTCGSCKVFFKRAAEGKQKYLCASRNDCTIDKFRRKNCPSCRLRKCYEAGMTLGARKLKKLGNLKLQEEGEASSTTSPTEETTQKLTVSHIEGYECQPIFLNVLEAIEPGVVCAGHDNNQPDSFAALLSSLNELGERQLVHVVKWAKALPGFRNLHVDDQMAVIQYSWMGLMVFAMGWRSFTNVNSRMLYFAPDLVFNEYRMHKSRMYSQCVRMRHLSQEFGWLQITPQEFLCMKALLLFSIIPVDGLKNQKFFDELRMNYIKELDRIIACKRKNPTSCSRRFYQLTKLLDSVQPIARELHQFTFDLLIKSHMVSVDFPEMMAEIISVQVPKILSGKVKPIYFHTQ
The class given is cell-based. The note with it: VCaP cells, 10% FBS, 10 μM, 24 hours.
Experimental: Cells were fixed with 4% paraformaldehyde for 15 minutes at room temperature, permeabilized with immunostaining permeate for 10 minutes and blocked with 5% BSA containing 1% Tween-20 for 1 hour. After overnight Immunostain with AR Rabbit monoclonal antibody (1:400;CST,5153S) at 4° C, a Cy3 conjugated Goat Anti-Rabbit IgG (1:300; Servicebio, GB21303) reacted for 1 hour. DAPI (4’,6-diamidine-2’-phenylindole, Servicebio, G1012) stained the nuclear to bule for 10 minutes in the dark. Washing three times with PBS between each step. Immunofluorescence images were acquired by fluorescence microscopy using a NIKON ECLIPSE CI microscope (Nikon Corporation; magnification).

Another assay deals with T2, HDAC6 (Homo sapiens, UniProt Q9UBN7).
T2 sequence (Q9UBN7 1-1215): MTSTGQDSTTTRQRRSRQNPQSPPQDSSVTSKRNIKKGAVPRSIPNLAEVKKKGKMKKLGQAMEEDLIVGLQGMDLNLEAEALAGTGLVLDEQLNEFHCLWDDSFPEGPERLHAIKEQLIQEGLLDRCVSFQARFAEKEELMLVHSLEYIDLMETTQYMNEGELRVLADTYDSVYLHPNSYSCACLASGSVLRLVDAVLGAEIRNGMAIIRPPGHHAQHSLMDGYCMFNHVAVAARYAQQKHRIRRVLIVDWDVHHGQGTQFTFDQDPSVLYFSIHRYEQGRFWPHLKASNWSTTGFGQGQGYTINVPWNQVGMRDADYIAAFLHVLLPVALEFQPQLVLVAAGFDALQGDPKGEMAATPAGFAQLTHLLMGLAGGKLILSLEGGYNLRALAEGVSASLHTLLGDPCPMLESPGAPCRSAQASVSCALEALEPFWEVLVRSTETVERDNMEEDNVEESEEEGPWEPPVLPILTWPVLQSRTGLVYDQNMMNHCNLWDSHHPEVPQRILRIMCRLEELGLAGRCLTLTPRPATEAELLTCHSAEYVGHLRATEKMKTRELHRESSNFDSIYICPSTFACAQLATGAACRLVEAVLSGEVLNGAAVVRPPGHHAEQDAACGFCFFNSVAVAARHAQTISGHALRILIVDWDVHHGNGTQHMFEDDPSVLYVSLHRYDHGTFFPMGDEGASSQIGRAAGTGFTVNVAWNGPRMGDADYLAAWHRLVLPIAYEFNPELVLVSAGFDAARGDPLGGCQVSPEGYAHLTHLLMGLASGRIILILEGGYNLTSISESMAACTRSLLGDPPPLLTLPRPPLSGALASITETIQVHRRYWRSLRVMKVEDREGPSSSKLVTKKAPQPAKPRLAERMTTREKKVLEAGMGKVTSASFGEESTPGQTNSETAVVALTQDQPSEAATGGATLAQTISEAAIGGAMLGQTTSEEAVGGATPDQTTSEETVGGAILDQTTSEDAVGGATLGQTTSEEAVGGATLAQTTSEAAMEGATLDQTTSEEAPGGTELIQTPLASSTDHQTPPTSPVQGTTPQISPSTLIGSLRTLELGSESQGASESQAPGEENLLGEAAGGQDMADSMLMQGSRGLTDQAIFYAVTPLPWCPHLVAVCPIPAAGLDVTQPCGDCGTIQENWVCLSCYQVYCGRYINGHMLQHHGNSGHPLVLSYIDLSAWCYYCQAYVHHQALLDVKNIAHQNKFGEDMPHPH
Put plainly: fluorescent-based HDAC assay. The class given is biochemical. Set-up: purchased BPS Bioscience. As for the experimental part:
Commercial fluorescent assay kits were used to measure the activities of HDAC (BPS Bioscience). Briefly, the tested compounds were diluted in DMSO into a 96-well plate, and then assay buffer, HDAC, and substrate were added. The plate was incubated at 37° C for 30 minutes for enzymatic reactions, and the developer was added. After 10 minutes of incubation, the generated fluorescence was measured at an excitation of 380 nm and an emission of 460 nm.

Assay [2] deals with T1, AR. It counts as cell-based. The note with it: VCaP cells, 24 hours. As for the experimental part:
RNA expression level was analyzed by qRT-PCR and protein expression level was analyzed by Western blot. […] (I) Representative immunofluorescence microscopic images of VCaP cells for checking the subcellular localization of AR.
To evaluate the HDAC6 inhibition ability of Zeta55 in VCaP cells, the acetylation status of α-tubulin protein (a HDAC6 substrate) was assessed using western blot. […] We assessed the protein level of AR in VCaP cells.
The whole-cell extracts were prepared in lysis buffer with a protease inhibitor cocktail (Bimake), while the xenograft tissue extracts were prepared in 0.5% Nonidet P 40 Substitute solution (Biosharp) with cocktail protease inhibitor (Bimake). Each sample containing 30 μg of total protein was loaded onto 10% SDS-PAGE and electrotransferred onto polyvinylidene fluoride membranes. The membranes were blocked with 5% skimmed milk in PBST at room temperature for 2 hours and incubated with primary antibodies at 4° C overnight. After the membranes were washed with PBST three times, they were incubated with horseradish peroxidase-conjugated anti-rabbit or anti-mouse secondary antibody at room temperature for 1 hour. Chemiluminescent detection was performed with WesternBright ECL (Advansta). The immunoblots were visualized using the FluorChem FC3 system (ProteinSimple).

Usually IC50 stands for the concentration needed to halve the response being measured. Read a high IC50 as a need for much substance. For the compound `N#Cc1ccc(N2C(=O)C3(CCC3)N(c3ccc(C(=O)NO)c(F)c3)C2=S)cc1C(F)(F)F` [Zeta55], the “subcellular localization of AR” value at AR [1] is “distributed in both cytoplasm and nucleus”. Further, the IC50 at HDAC6 was 980 nM. Besides, at HDAC6 (over HDAC1, 2, 3, 4), the “selectivity for HDAC6 over other HDACs tested” value is on record as above 20 folds. The AR protein level result at AR [2] is recorded as “decreased AR protein level in a dose-dependent manner”.

Values taken from publication PMC7993727, “Discovery of a novel AR/HDAC6 dual inhibitor for prostate cancer treatment” (Aging (Albany NY), 2021).
